For assay [1], the system named is Phosphorylation of ERK1/2 in MIA PaCa-2 cells. Put plainly: Phospho-ERK1/2 MSD assay in MIA PaCa-2 cells. Type of assay: cell-based. Conditions: read-out: p-ERK IC50 (2 h, MiaPaCa-2; μM), 2 h compound treatment, MIA PaCa-2 cells, EGF stimulated. The gist of the method:
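Phospho-ERK1/2 measured by MSD electrochemiluminescence kit in RIPA lysates of MIA PaCa-2 cells. Cells were treated with compound titrations for 2 or 4 h at 37 °C, 5% CO2, followed by a 10 min pulse of 10 ng/mL EGF.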

Assay [2] concerns Phosphorylation of ERK1/2 in A549 cells. Put plainly: Phospho-ERK1/2 MSD assay in A549 cells. Conditions: read-out: p-ERK IC50 (2 h, A549; μM), 2 h compound treatment, A549 cells, EGF stimulated. In kind it is cell-based. The gist of the method:
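Phospho-ERK1/2 was quantified by MSD immunoassay in RIPA lysates of MIA PaCa-2 or A549 cells. Before lysis, cells received 10 ng/mL EGF for 10 min after 2 or 4 h exposure at 37° C. to a compound concentration series.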

For assay [3], the target named is GDP-bound KRAS protein (aa 1-169), containing both G12C and C118A amino acid substitutions (Homo sapiens (Human), UniProt P01116, C118A/G12C). Put plainly: Coupled nucleotide exchange assay (SOS-mediated nucleotide exchange, AlphaScreen). Type of assay: biochemical. Conditions: 5 min compound pre-incubation; for IC50: read-out: Coupled exchange IC50 (5 min; μM). Background: Alpha assays give light when donor and acceptor beads are brought close together.
Chain of GDP-bound KRAS protein (aa 1-169), containing both G12C and C118A amino acid substitutions (P01116 other isoform, or with tags, fused parts or gaps G12C/C118A): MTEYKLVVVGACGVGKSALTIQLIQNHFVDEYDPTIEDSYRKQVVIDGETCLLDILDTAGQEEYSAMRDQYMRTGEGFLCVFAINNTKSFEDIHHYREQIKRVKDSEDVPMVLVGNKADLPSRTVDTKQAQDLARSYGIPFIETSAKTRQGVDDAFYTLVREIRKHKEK

The source of these data is patent US11285156B2, “Substituted piperazines as KRAS G12C inhibitors” (Amgen Inc., priority 2018, dated 2022).

One may read the IC50 as the concentration at which inhibition is half-maximal.

Where two headings read alike, the source gives them in different places.

With `C=CC(=O)N1C[C@H](C)N(c2nc(=O)n(-c3c(C(C)C)ccnc3C(C)C)c3nc(-c4c(O)cccc4F)c(Cl)cc23)C[C@H]1C` (single isomer, unassigned) [Example 124-4], the IC50 in assay [1] (Homo sapiens, MIA PaCa-2, 2 h) is 0.016 µM; in assay [2] (Homo sapiens, A549, 2 h), over 7.5 µM; in assay [3], 0.022 µM.

As to `C=CC(=O)N1C[C@H](C)N(c2nc(=O)n(-c3c(C)ccnc3C(C)C)c3nc(-c4cccc(F)c4C(F)(F)F)c(Cl)cc23)C[C@H]1C` (atropisomer, axis not shown; (M)) [Example 92-63, (M)-6-Chloro-4-[(2S,5R)-2,5-dimethyl-4-prop-2-enoyl-piperazin-1-yl]-7-[3-fluoro-2-(trifluoromethyl)phenyl]-1-(2-isopropyl-4-methyl-3-pyridyl)pyrido [2,3-d]pyrimidin-2-one], the IC50 in assay [1] (Homo sapiens, MIA PaCa-2, 2 h) was 0.052 µM; in assay [2] (Homo sapiens, A549, 2 h), over 7.5 µM; in assay [3], 0.039 µM.

For the molecule `[2H]C1([2H])CN(C(=O)C=C)CC([2H])([2H])N1c1nc(=O)n(-c2c(C)ccnc2C(C)C)c2nc(-c3c(O)cccc3F)c(F)cc12` (atropisomer, axis not shown; (M)) [Example 72-21, (M)-6-Fluoro-7-(2-fluoro-6-hydroxy-phenyl)-1-(2-isopropyl-4-methyl-3-pyridyl)-4-(2,2,6,6-tetradeuterio-4-prop-2-enoyl-piperazin-1-yl)pyrido[2,3-d]pyrimidin-2-one], the IC50 in assay [1] (Homo sapiens, MIA PaCa-2, 2 h) is 0.306 µM; in assay [2] (Homo sapiens, A549, 2 h) it was over 7.5 µM. Besides, the “Coupled exchange IC50 (5 min; μM)” value in assay [3] was determined as 0.468 µM.

Take `C=CC(=O)N1C[C@H](C)N(c2nc(=O)n(-c3c(CN(C)C)cccc3C(C)C)c3nc(-c4ccccc4F)c(Cl)cc23)C[C@H]1C` (single isomer, unassigned) [Example 80-14-2]: the IC50 was 0.031 µM in assay [1] (Homo sapiens, MIA PaCa-2, 2 h); over 7.5 µM in assay [2] (Homo sapiens, A549, 2 h); 0.061 µM in assay [3].

As to `C=CC(=O)N1C[C@H](C)N(c2nc(=O)n(-c3c(C)ccnc3C(C)C)c3nc(-c4ccccc4N)c(Cl)cc23)C[C@H]1C` (atropisomer, axis not shown; (M)) [Example 92-12, (M)-7-(2-Aminophenyl)-6-chloro-4-[(2S,5R)-2,5-dimethyl-4-prop-2-enoyl-piperazin-1-yl]-1-(2-isopropyl-4-methyl-3-pyridyl)pyrido[2,3-d]pyrimidin-2-one], the IC50 in assay [1] (Homo sapiens, MIA PaCa-2, 2 h) was 0.022 µM; in assay [2] (Homo sapiens, A549, 2 h), over 7.5 µM; in assay [3], 0.019 µM.

As to `C=CC(=O)N1C[C@H](C)N(c2nc(=O)n(-c3c(N(C)C)ccnc3C(C)C)c3nc(-c4ccccc4C)c(Cl)cc23)C[C@H]1C` (single isomer, unassigned) [Example 103-7-2], the IC50 in assay [1] was 0.052 µM; in assay [2], over 7.5 µM; in assay [3] it was 0.088 µM.

For `C=CC(=O)N1C[C@H](C)N(c2nc(=O)n(-c3c(CC)ncnc3C(C)C)c3nc(-c4ccccc4F)c(Cl)cc23)C[C@H]1C` (single isomer, unassigned) [Example 109-1-1], the IC50 in assay [1] was 0.045 µM; in assay [2] it was over 7.5 µM; in assay [3] it was 0.06 µM.

Regarding `C=CC(=O)N1C[C@H](C)N(c2nc(=O)n(-c3c(N(CC)CC)ccnc3C(C)C)c3nc(-c4ccccc4C)c(Cl)cc23)C[C@H]1C` [Example 103-6, 6-chloro-1-[4-(diethylamino)-2-isopropyl-3-pyridyl]-4-[(2S,5R)-2,5-dimethyl-4-prop-2-enoyl-piperazin-1-yl]-7-(o-tolyl)pyrido[2,3 d]pyrimidin-2-one], the IC50 is 0.474 µM in assay [1] (Homo sapiens, MIA PaCa-2, 2 h); over 7.5 µM in assay [2] (Homo sapiens, A549, 2 h); 0.08 µM in assay [3].

Regarding `C=CC(=O)N1C[C@H](C)N(c2nc(=O)n(-c3c(C)ccnc3C(C)C)c3nc(-c4c(C)cccc4F)c(F)cc23)C[C@H]1C` (atropisomer, axis not shown; (M)) [Example 94-10, (M)-4-[(2S,5R)-2,5-Dimethyl-4-prop-2-enoyl-piperazin-1-yl]-6-fluoro-7-(2-fluoro-6-methyl-phenyl)-1-(2-isopropyl-4-methyl-3-pyridyl)pyrido [2,3-d]pyrimidin-2-], the IC50 in assay [1] (Homo sapiens, MIA PaCa-2, 2 h) was 0.079 µM; in assay [2] (Homo sapiens, A549, 2 h) it was over 7.5 µM; in assay [3], 0.137 µM.

As to `[2H]C1([2H])CN(c2nc(=O)n(-c3c(C)ccnc3C(C)C)c3nc(-c4c(O)cccc4F)c(F)cc23)CC([2H])([2H])N1C(=O)C=C` (atropisomer, axis not shown; (M)) [Example 72-20, (M)-6-Fluoro-7-(2-fluoro-6-hydroxy-phenyl)-1-(2-isopropyl-4-methyl-3-pyridyl)-4-(3,3,5,5-tetradeuterio-4-prop-2-enoyl-piperazin-1-yl)pyrido[2,3-d]pyrimidin-2-one], the half-maximal inhibitory concentration (IC50) is 0.223 µM in assay [1] (Homo sapiens, MIA PaCa-2, 2 h) and over 7.5 µM in assay [2] (Homo sapiens, A549, 2 h). In addition, the “Coupled exchange IC50 (5 min; μM)” value in assay [3] came to 0.382 µM.

Consider `C=CC(=O)N1CCN(c2nc(=O)n(CC(C)(C)C)c3nc(-c4ccccc4F)c(Cl)cc23)C[C@@H]1CO` [Example 106-3, 6-Chloro-1-(2,2-dimethylpropyl)-7-(2-fluorophenyl)-4-[(3R)-3-(hydroxymethyl)-4-prop-2-enoyl-piperazin-1-yl]pyrido[2,3-d]pyrimidin-2-one], for which the IC50 in assay [1] (Homo sapiens, MIA PaCa-2, 2 h) was 10 µM; in assay [2] (Homo sapiens, A549, 2 h), over 7.5 µM; in assay [3], 8.34 µM.

As for `C=CC(=O)N1C[C@H](C)N(c2nc(=O)n(-c3c(C(C)C)nc(S(=O)(=O)CCC)nc3C(C)C)c3nc(-c4ccccc4F)c(Cl)cc23)C[C@H]1C` [Example 158, 4-((2S,5R)-4-Acryloyl-2,5-dimethylpiperazin-1-yl)-6-chloro-1-(4,6-diisopropyl-2-(propylsulfonyl)pyrimidin-5-yl)-7-(2-fluorophenyl)pyrido[2,3-d]pyrimidin-2(1H)-one], the half-inhibitory concentration (IC50) amounted to 0.191 µM in assay [1] (Homo sapiens, MIA PaCa-2, 2 h); 3.83 µM in assay [2] (Homo sapiens, A549, 2 h); 0.189 µM in assay [3].

Regarding `C=CC(=O)N1C[C@H](C)N(c2nc(=O)n(-c3c(C)ccnc3C(C)C)c3nc(-c4ccccc4Cl)c(Cl)cc23)C[C@H]1C` (atropisomer, axis not shown; (M)) [Example 92-51, (M)-6-Chloro-7-(2-chlorophenyl)-4-[(2S,5R)-2,5-dimethyl-4-prop-2-enoyl-piperazin-1-yl]-1-(2-isopropyl-4-methyl-3-pyridyl)pyrido [2,3-d]pyrimidin-2-one], the IC50 in assay [1] (Homo sapiens, MIA PaCa-2, 2 h) was 0.03 µM; in assay [2] (Homo sapiens, A549, 2 h), over 7.5 µM; in assay [3], 0.033 µM.

As for `C=CC(=O)N1C[C@H](C)N(c2nc(=O)n(-c3c(N(C)C)ccnc3C(C)C)c3nc(-c4ccccc4C)c(Cl)cc23)C[C@H]1C` [Example 103-7, 6-Chloro-1-[4-(dimethylamino)-2-isopropyl-3-pvridyl]-4-[(2S,5R)-2,5-dimethyl-4-prop-2-enoyl-piperazin-1-yl]-7-(o-tolyl)pyrido[2,3-d]pyrimidin-2-one], the 50% inhibitory concentration (IC50) in assay [1] was 0.128 µM; in assay [2] (Homo sapiens, A549, 2 h), 3.75 µM; in assay [3] it was 0.143 µM.

Regarding `C=CC(=O)N1C[C@H](C)N(c2nc(=O)n(-c3c(C)ccnc3C(C)C)c3nc(-c4c(F)cccc4NC(=O)CC)c(Cl)cc23)C[C@H]1C` (atropisomer, axis not shown; (M)) [Example 129-4, (M)-N-[2-[6-Chloro-4-[(2S,5R)-2,5-dimethyl-4-prop-2-enoyl-piperazin-1-yl]-1-(2-isopropyl-4-methyl-3-pyridyl)-2-oxo-pyrido[2,3-d]pyrimidin-7-yl]-3-fluoro-phenyl]propanamide], the IC50 was 0.058 µM in assay [1] (Homo sapiens, MIA PaCa-2, 2 h); over 7.5 µM in assay [2] (Homo sapiens, A549, 2 h); 0.053 µM in assay [3].

In the case of `C=CC(=O)N1CCN(c2nc(=O)n(-c3c(C)ccnc3C(C)C)c3nc(-c4ccccc4F)c(Cl)cc23)CC1CC#N` (atropisomer, axis not shown; (M)) [Example 145-2-2, (M)-2-[4-[6-Chloro-7-(2-fluorophenyl)-1-(2-isopropyl-4-methyl-3-pyridyl)-2-oxo-pyrido[2,3-d]pyrimidin-4-yl]-1-prop-2-enoyl-piperazin-2-yl]acetonitrile], the IC50 in assay [1] is 0.213 µM; in assay [2], over 7.5 µM; in assay [3], 0.238 µM.

Consider `C=CC(=O)N1C[C@H](C)N(c2nc(=O)n(-c3c(C)ccnc3C(C)C)c3nc(-c4cc(O)cc5ccccc45)c(Cl)cc23)C[C@H]1C` (atropisomer, axis not shown; (M)) [Example 132-1, (M)-6-Chloro-4-[(2S,5R)-2,5-dimethyl-4-prop-2-enoyl-piperazin-1-yl]-7-(3-hydroxy-1-naphthyl)-1-(2-isopropyl-4-methyl-3-pyridyl)pyrido[2,3-d]pyrimidin-2-one], for which the results for the IC50 in assay [1], in assay [2] and in assay [3] were 0.46 µM, over 7.5 µM and 0.053 µM, respectively.

For the molecule `C=CC(=O)N1C[C@H](C)N(c2nc(=O)n(-c3c(C)ccnc3C(C)C)c3nc(-c4ccccc4C(=O)N(C)C)c(Cl)cc23)C[C@H]1C` (atropisomer, axis not shown; (M)) [Example 92-28, (M)-2-[6-Chloro-4-[(2S,5R)-2,5-dimethyl-4-prop-2-enoyl-piperazin-1-yl]-1-(2-isopropyl-4-methyl-3-pyridyl)-2-oxo-pyrido[2,3-d]pyrimidin-7-yl]-N,N-dimethyl-benzamide], the IC50 in assay [1] (Homo sapiens, MIA PaCa-2, 2 h) was 0.11 µM; in assay [2] (Homo sapiens, A549, 2 h), over 7.5 µM; in assay [3], 0.123 µM.
